In ChEMBL document CHEMBL4118268, “Identification, Characterization, and Optimization of 2,8-Disubstituted-1,5-naphthyridines as Novel Plasmodium falciparum Phosphatidylinositol-4-kinase Inhibitors with in Vivo Efficacy in a Humanized Mouse Model of Malaria” (J Med Chem, 2018):

Experiments:
[1] = Metabolic stability in human liver microsomes assessed as parent compound remaining at 0.1 uM in presence of NADPH after 30 mins by LC-MS/MS analysis; assay type: ADME, microsome; conditions: read-out: Stability
[2] = Metabolic stability in mouse liver microsomes assessed as parent compound remaining at 0.1 uM in presence of NADPH after 30 mins by LC-MS/MS analysis; assay type: ADME, microsome; conditions: read-out: Stability
[3] = Metabolic stability in rat liver microsomes assessed as parent compound remaining at 0.1 uM in presence of NADPH after 30 mins by LC-MS/MS analysis; assay type: ADME, microsome; conditions: read-out: Stability
[4] = Octanol-phosphate buffer distribution coefficient, log D of the compound at pH 7.4 measured after 1 hr by HPLC method; assay type: physicochemical
[5] = Cmax in Balb/c mouse pretreated with CYP inhibitor ABT at 5 mg/kg, po by LC-MS analysis; assay type: ADME, organism-based; set-up: dose 5 mg/kg, route oral; conditions: in vivo
Mus musculus [6] = experiment: AUC in humanized NOD-scid IL2Rgamma null mouse infected with Plasmodium falciparum 3D70087/N9 at 5 mg/kg, po up to 24 hrs post dose by LC-MS/MS analysis; assay type: ADME, organism-based; set-up: time < 24 hr, dose 5 mg/kg, route oral; conditions: in vivo
[7] = Volume of distribution in Balb/c mouse at […], iv by LC-MS analysis; assay type: ADME, organism-based; conditions: in vivo
Mus musculus [8] = experiment: AUC in humanized NOD-scid IL2Rgamma null mouse infected with Plasmodium falciparum 3D70087/N9 at […], po up to 24 hrs post dose by LC-MS/MS analysis; assay type: ADME, organism-based; set-up: dose 2.5 mg/kg, time < 24 hr, route oral; conditions: in vivo
[9] = Tmax in humanized NOD-scid IL2Rgamma null mouse infected with Plasmodium falciparum 3D70087/N9 at 5 mg/kg, po up to 96 hrs post dose by LC-MS/MS analysis; assay type: ADME, organism-based; conditions: in vivo
[10] = Cmax in humanized NOD-scid IL2Rgamma null mouse infected with Plasmodium falciparum 3D70087/N9 at 5 mg/kg, po up to 96 hrs post dose by LC-MS/MS analysis; assay type: ADME, organism-based; set-up: dose 5 mg/kg, route oral; conditions: in vivo
[11] = Tmax in humanized NOD-scid IL2Rgamma null mouse infected with Plasmodium falciparum 3D70087/N9 at 10 mg/kg, po up to 96 hrs post dose by LC-MS/MS analysis; assay type: ADME, organism-based; conditions: in vivo
Mus musculus [12] = experiment: AUC in humanized NOD-scid IL2Rgamma null mouse infected with Plasmodium falciparum 3D70087/N9 at 50 mg/kg, po up to 24 hrs post dose by LC-MS/MS analysis; assay type: ADME, organism-based; set-up: time < 24 hr, dose 50 mg/kg, route oral; conditions: in vivo
[13] = Tmax in humanized NOD-scid IL2Rgamma null mouse infected with Plasmodium falciparum 3D70087/N9 at […], po up to 96 hrs post dose by LC-MS/MS analysis; assay type: ADME, organism-based; conditions: in vivo
[14] = Tmax in humanized NOD-scid IL2Rgamma null mouse infected with Plasmodium falciparum 3D70087/N9 at 50 mg/kg, po up to 96 hrs post dose by LC-MS/MS analysis; assay type: ADME, organism-based; conditions: in vivo
[15] = Cmax in humanized NOD-scid IL2Rgamma null mouse infected with Plasmodium falciparum 3D70087/N9 at 10 mg/kg, po up to 96 hrs post dose by LC-MS/MS analysis; assay type: ADME, organism-based; set-up: dose 10 mg/kg, route oral; conditions: in vivo
[16] = Cmax in humanized NOD-scid IL2Rgamma null mouse infected with Plasmodium falciparum 3D70087/N9 at 50 mg/kg, po up to 96 hrs post dose by LC-MS/MS analysis; assay type: ADME, organism-based; set-up: dose 50 mg/kg, route oral; conditions: in vivo
Mus musculus [17] = experiment: AUC (0 to infinity) in Balb/c mouse at […], iv by LC-MS analysis; assay type: ADME, organism-based; set-up: dose 1.5 mg/kg, time infinity, route intravenous; conditions: in vivo
[18] = Cmax in humanized NOD-scid IL2Rgamma null mouse infected with Plasmodium falciparum 3D70087/N9 at […], po up to 96 hrs post dose by LC-MS/MS analysis; assay type: ADME, organism-based; set-up: dose 2.5 mg/kg, route oral; conditions: in vivo
[19] = Apparent half life in Balb/c mouse pretreated with CYP inhibitor ABT at 5 mg/kg, po by LC-MS analysis; assay type: ADME, organism-based; conditions: in vivo, read-out: t1/2(app) (converted)
Mus musculus [20] = experiment: AUC in humanized NOD-scid IL2Rgamma null mouse infected with Plasmodium falciparum 3D70087/N9 at 10 mg/kg, po up to 24 hrs post dose by LC-MS/MS analysis; assay type: ADME, organism-based; set-up: time < 24 hr, dose 10 mg/kg, route oral; conditions: in vivo
[21] = Tmax in Balb/c mouse pretreated with CYP inhibitor ABT at 5 mg/kg, po by LC-MS analysis; assay type: ADME, organism-based; conditions: in vivo
[22] = In vivo drug metabolism in Balb/c mouse assessed as naphthyridine core or pyridine substituent oxidation metabolite formation in plasma at 5 mg/kg, po or […], iv by LC-MS analysis; assay type: ADME, organism-based
[23] = Tmax in Balb/c mouse pretreated with CYP inhibitor ABT at 20 mg/kg, po by LC-MS analysis; assay type: ADME, organism-based; conditions: in vivo
[24] = Tmax in Balb/c mouse at 20 mg/kg, po by LC-MS analysis; assay type: ADME, organism-based; conditions: in vivo
Mus musculus [25] = experiment: AUC (0 to infinity) in Balb/c mouse at 2 mg/kg, iv by LC-MS analysis; assay type: ADME, organism-based; set-up: dose 2 mg/kg, route intravenous, time infinity; conditions: in vivo
[26] = Apparent half life in Balb/c mouse pretreated with CYP inhibitor ABT at 20 mg/kg, po by LC-MS analysis; assay type: ADME, organism-based; conditions: in vivo, read-out: t1/2(app) (converted)
[27] = Apparent half life in Balb/c mouse at 2 mg/kg, iv by LC-MS analysis; assay type: ADME, organism-based; conditions: in vivo, read-out: t1/2(app) (converted)
[28] = Cmax in Balb/c mouse at 20 mg/kg, po by LC-MS analysis; assay type: ADME, organism-based; set-up: dose 20 mg/kg, route oral; conditions: in vivo
Mus musculus [29] = experiment: AUC (0 to infinity) in Balb/c mouse pretreated with CYP inhibitor ABT at 20 mg/kg, po by LC-MS analysis; assay type: ADME, organism-based; set-up: dose 20 mg/kg, route oral, time infinity; conditions: in vivo
[30] = Cmax in Balb/c mouse pretreated with CYP inhibitor ABT at 20 mg/kg, po by LC-MS analysis; assay type: ADME, organism-based; set-up: dose 20 mg/kg, route oral; conditions: in vivo
Mus musculus [31] = experiment: AUC (0 to infinity) in Balb/c mouse at 20 mg/kg, po by LC-MS analysis; assay type: ADME, organism-based; set-up: dose 20 mg/kg, route oral, time infinity; conditions: in vivo
[32] = Apparent half life in Balb/c mouse at 20 mg/kg, po by LC-MS analysis; assay type: ADME, organism-based; conditions: in vivo, read-out: t1/2(app) (converted)

O=S(=O)(CCN1CCCC1)c1cccc(-c2ccc3nccc(-c4ccncc4)c3n2)c1
remaining at 0.5 h, 0.1 µM [1]: 56% | remaining at 0.5 h, 0.1 µM [2]: 60% | remaining at 0.5 h, 0.1 µM [3]: 66%

O=S(=O)(NCc1ccccc1)c1cccc(-c2ccc3nccc(-c4ccncc4)c3n2)c1
remaining at 0.5 h, 0.1 µM [1]: 42% | remaining at 0.5 h, 0.1 µM [2]: 2% | logD at 1 h [4]: 1.8 to 4.2 | remaining at 0.5 h, 0.1 µM [3]: 6%

O=S(=O)(CCO)c1cccc(-c2ccc3nccc(-c4ccncc4)c3n2)c1
remaining at 0.5 h, 0.1 µM [1]: 95% | remaining at 0.5 h, 0.1 µM [2]: 52% | remaining at 0.5 h, 0.1 µM [3]: 59%

O=S(=O)(c1cccc(-c2ccc3nccc(-c4ccncc4)c3n2)c1)N1CC[C@H](O)C1
remaining at 0.5 h, 0.1 µM [1]: 17% | remaining at 0.5 h, 0.1 µM [2]: 12% | remaining at 0.5 h, 0.1 µM [3]: 10%

Nc1cccc(-c2ccc3nccc(-c4ccncc4)c3n2)c1
remaining at 0.5 h, 0.1 µM [1]: 78% | remaining at 0.5 h, 0.1 µM [2]: 54% | remaining at 0.5 h, 0.1 µM [3]: 61%

NS(=O)(=O)c1cccc(-c2ccc3nccc(-c4ccncc4F)c3n2)c1
logD at 1 h [4]: 1.8 to 4.2

CS(=O)(=O)Nc1ccc2nccc(-c3ccncc3)c2n1
remaining at 0.5 h, 0.1 µM [1]: 96% | remaining at 0.5 h, 0.1 µM [2]: 95% | remaining at 0.5 h, 0.1 µM [3]: 94%

O=S(=O)(NCC1COC1)c1cccc(-c2ccc3nccc(-c4ccncc4)c3n2)c1
remaining at 0.5 h, 0.1 µM [1]: 2% | remaining at 0.5 h, 0.1 µM [2]: 19% | remaining at 0.5 h, 0.1 µM [3]: 8%

CS(=O)(=O)Nc1cccc(-c2ccc3nccc(-c4ccncc4)c3n2)c1
remaining at 0.5 h, 0.1 µM [1]: 59% | remaining at 0.5 h, 0.1 µM [2]: 50% | remaining at 0.5 h, 0.1 µM [3]: 49%

O=S(=O)(NCCN1CCOCC1)c1cccc(-c2ccc3nccc(-c4ccncc4)c3n2)c1
remaining at 0.5 h, 0.1 µM [1]: < 1% | remaining at 0.5 h, 0.1 µM [2]: < 1% | remaining at 0.5 h, 0.1 µM [3]: < 1%

NS(=O)(=O)c1ccc(-c2ccc3nccc(-c4ccncc4)c3n2)cc1
remaining at 0.5 h, 0.1 µM [1]: 76% | remaining at 0.5 h, 0.1 µM [2]: 13% | remaining at 0.5 h, 0.1 µM [3]: 36%

NS(=O)(=O)c1cccc(-c2ccc3nccc(-c4ccnc(C(F)(F)F)c4)c3n2)c1
Cmax [5]: 2800 nM | AUC (Mus musculus [6]): 1198 µM/min | Vd [7]: 7 L/kg | AUC (Mus musculus [8]): 658 µM/min | Tmax [9]: 4 h | remaining at 0.5 h, 0.1 µM [1]: 95% | Cmax [10]: 1470 nM | remaining at 0.5 h, 0.1 µM [2]: 97% | Tmax [11]: 4 h | AUC (Mus musculus [12]): 5591 µM/min | Tmax at 96 h [13]: 4 h | logD at 1 h [4]: 1.8 to 4.2 | Tmax [14]: 2.5 h | Cmax [15]: 2230 nM | Cmax [16]: 6360 nM | AUC (Mus musculus [17]): 350 µM/min | Cmax at 96 h [18]: 750 nM | half-life [19]: 33 h | AUC (Mus musculus [20]): 2035 µM/min | Tmax [21]: 1 h | remaining at 0.5 h, 0.1 µM [3]: 96% | Drug metabolism [22]: Metabolite_Detected

NS(=O)(=O)c1cncc(-c2ccc3nccc(-c4cn[nH]c4)c3n2)c1
remaining at 0.5 h, 0.1 µM [2]: 2%

NS(=O)(=O)c1cccc(-c2ccc3nccc(-c4ccncc4)c3n2)c1
Tmax [23]: 0.5 to 1 h | Tmax [24]: 0.5 h | AUC (Mus musculus [25]): 111 µM/min | half-life [26]: 3.2 h | half-life [27]: 2.5 h | Cmax [28]: 5000 nM | AUC (Mus musculus [29]): 243 µM/min | Cmax [30]: 500 nM | AUC (Mus musculus [31]): 523 µM/min | half-life [32]: 1.6 h

C[C@@H]1CN(S(=O)(=O)c2cccc(-c3ccc4nccc(-c5ccncc5)c4n3)c2)C[C@H](C)N1
remaining at 0.5 h, 0.1 µM [1]: 34% | remaining at 0.5 h, 0.1 µM [2]: 33% | remaining at 0.5 h, 0.1 µM [3]: 36%

O=S(=O)(c1cccc(-c2ccc3nccc(-c4ccncc4)c3n2)c1)N1CCC(O)CC1
remaining at 0.5 h, 0.1 µM [1]: 5% | remaining at 0.5 h, 0.1 µM [2]: 7% | remaining at 0.5 h, 0.1 µM [3]: 11%

O=S(=O)(NCCN1CCCC1)c1cccc(-c2ccc3nccc(-c4ccnc(C(F)(F)F)c4)c3n2)c1
remaining at 0.5 h, 0.1 µM [1]: 14% | remaining at 0.5 h, 0.1 µM [2]: 8% | remaining at 0.5 h, 0.1 µM [3]: 16%
